According to article PMC11272821, “Mechanistic safety assessment via multi-omic characterisation of systemic pathway perturbations following in vivo MAT2A inhibition” (Archives of Toxicology, 2024):

What was measured:
[1] = Plasma toxicokinetic analysis after twice daily oral dosing; format: in vivo; conditions: rat, n = 5
Procedure: All in vivo experimental procedures were conducted in accordance with United Kingdom legislation (Animals (Scientific Procedures) Act, 1986) and were compliant with the ARRIVE guidelines. 8–10 week old male (210–230 g) Crl:WI Han Wistar rats (Charles River Laboratories Ltd, UK) were acclimatised to the facility for 10 days and then randomised to groups based on bodyweight.
A whole blood sample (32 µL) was collected via a tail vein prick into a K2EDTA treated capillary tube, centrifuged at 1,500 g for 10 min at 4 °C, and plasma collected using a micropipette (non-EDTA Ref.no. 172292, Vitrex Medical A/S, Denmark). Samples were collected on Day 1 and Day 7 at 1 h, 2 h, 4 h, 8 h (pre-second dose), 10 h and 24 h post the first dose.
Calibration and quality control samples were prepared in rat plasma with a target concentration range for quantification of 0.1 – 100 µmol/L. Sample preparation: 8 µl of plasma were diluted in 92 µl of 5% (w/v) bovine serum albumin in phosphate buffer and gently shaken for 10 min before 5 min centrifugation at 2400 g at 4°C. 25 µL were transferred to new tubes and 150 µl of acetonitrile containing an internal standard were added for protein precipitation. After thorough mixing and centrifugation for 5 min at 2400 g and 4°C, 75 µl of supernatant were transferred into new tubes and diluted in 150 µL water/HCOOH (100:0.2, v/v) then thoroughly vortexed and again centrifuged for 5 min at 2400 g and 4°C. 1.5 µl of the supernatant were injected for LC-MS/MS analysis utilizing an Acquity UPLC BEH C18, 2.1x50 […], 1.7 µ column at 60° C. Mobile phase A: Acetonitrile/HCOOH (100/0.2, v/v) and B: water/HCCOH (100/0.2, v/v). Flow rate: 0.75 mL/min.

MTAP KO HCT116 xenograft = system: MTAP KO HCT116 xenograft; set-up: method as in Atkinson et al. [2024]; conditions: ref Atkinson et al. [2024], cited from earlier work
Kv4.3 = Kv4.3 (Homo sapiens, UniProt Q9UK17); test: Cardiac ion channel panel; format: cell-based; conditions: Full curve
Description: (§1) Full curve IC50 (µM) for hERG (human ether-a-go-go-related gene) and the cardiac ion channel panel (sodium and potassium ion channels; Nav1.5, IKs, Kv4.3), along with the L-type Calcium channel (Cav-1.2 Ver; verapamil, DIL; diltiazem), HepG2 C3A 3D spheroids, HepG2 C3A (2D cultures in glucose or galactose media), and THP1 cytotoxicity.

IKs = IKs (Homo sapiens, UniProt P51787); test: Cardiac ion channel panel; format: cell-based; conditions: Full curve
Description: as §1

NaV1.5 = NaV1.5 (Homo sapiens, UniProt Q14524); test: Cardiac ion channel panel; format: cell-based; conditions: Full curve
Description: as §1

Chain of NaV1.5 (Q14524 whole entry): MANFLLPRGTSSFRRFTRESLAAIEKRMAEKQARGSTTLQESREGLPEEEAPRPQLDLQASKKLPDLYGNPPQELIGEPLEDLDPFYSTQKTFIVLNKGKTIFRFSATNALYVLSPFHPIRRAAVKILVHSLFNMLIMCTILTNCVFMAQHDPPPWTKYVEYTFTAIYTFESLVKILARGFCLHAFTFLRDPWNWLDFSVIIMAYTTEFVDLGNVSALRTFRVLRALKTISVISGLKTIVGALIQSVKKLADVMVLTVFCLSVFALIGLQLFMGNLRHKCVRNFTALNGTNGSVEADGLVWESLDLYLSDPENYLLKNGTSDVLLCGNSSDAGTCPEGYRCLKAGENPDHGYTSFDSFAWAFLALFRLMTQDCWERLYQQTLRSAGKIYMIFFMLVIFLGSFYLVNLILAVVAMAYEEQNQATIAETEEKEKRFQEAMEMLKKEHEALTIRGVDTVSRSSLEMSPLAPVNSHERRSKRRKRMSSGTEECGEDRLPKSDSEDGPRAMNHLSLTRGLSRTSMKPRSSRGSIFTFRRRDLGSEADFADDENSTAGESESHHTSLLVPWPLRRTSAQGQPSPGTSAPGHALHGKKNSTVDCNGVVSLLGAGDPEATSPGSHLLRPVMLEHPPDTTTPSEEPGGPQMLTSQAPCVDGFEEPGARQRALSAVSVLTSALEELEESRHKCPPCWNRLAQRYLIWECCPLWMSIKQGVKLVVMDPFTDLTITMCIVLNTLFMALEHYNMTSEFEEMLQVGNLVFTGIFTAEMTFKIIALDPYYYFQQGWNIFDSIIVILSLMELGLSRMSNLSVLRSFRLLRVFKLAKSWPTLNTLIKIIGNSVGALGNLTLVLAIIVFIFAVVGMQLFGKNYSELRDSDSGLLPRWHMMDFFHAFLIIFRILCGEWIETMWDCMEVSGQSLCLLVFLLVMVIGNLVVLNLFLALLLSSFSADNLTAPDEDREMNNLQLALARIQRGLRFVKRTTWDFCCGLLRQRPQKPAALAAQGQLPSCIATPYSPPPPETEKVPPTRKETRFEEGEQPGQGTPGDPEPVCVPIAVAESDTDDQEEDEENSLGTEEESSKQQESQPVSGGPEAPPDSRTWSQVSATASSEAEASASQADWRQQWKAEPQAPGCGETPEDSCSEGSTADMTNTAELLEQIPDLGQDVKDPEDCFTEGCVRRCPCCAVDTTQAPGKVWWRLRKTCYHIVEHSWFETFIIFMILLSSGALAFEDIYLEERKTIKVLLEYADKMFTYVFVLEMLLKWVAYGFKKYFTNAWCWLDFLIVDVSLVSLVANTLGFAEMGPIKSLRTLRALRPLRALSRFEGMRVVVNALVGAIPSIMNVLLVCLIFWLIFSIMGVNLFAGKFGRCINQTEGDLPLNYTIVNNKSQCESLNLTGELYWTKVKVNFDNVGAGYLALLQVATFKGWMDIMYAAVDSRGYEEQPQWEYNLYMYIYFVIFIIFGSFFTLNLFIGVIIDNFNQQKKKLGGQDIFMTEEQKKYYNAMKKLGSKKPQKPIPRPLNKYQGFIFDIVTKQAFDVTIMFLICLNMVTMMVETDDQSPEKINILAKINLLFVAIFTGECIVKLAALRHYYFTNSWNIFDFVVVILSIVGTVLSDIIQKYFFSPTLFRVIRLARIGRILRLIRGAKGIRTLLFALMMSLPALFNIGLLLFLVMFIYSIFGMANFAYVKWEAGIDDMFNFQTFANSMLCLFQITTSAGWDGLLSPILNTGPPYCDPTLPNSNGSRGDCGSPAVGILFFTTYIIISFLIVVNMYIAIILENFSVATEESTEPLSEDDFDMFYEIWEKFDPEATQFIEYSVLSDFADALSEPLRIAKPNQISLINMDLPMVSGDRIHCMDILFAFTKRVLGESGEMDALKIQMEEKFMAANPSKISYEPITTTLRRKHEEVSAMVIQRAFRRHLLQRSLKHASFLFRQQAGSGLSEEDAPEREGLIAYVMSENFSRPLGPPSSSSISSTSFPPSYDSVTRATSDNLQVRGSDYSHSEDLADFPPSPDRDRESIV
Chain of IKs (P51787 whole entry): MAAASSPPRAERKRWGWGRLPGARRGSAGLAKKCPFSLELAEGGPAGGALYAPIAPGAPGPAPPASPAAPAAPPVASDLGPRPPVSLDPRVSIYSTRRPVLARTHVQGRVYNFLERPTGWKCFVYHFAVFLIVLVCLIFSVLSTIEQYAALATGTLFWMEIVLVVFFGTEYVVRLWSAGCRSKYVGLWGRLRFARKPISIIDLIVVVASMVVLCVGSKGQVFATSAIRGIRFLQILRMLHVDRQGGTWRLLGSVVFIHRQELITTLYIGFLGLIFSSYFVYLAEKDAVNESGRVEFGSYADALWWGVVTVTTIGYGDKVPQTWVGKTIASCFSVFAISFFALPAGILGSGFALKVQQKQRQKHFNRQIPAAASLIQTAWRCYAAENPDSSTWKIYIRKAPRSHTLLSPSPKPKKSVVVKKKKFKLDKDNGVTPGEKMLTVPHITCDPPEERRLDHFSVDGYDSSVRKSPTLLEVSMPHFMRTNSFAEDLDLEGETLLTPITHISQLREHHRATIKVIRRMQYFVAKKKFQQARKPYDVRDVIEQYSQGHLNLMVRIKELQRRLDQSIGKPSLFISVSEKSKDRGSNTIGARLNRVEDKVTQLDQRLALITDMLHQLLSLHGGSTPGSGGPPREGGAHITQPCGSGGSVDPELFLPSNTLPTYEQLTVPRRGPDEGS
Chain of Kv4.3 (Q9UK17 whole entry): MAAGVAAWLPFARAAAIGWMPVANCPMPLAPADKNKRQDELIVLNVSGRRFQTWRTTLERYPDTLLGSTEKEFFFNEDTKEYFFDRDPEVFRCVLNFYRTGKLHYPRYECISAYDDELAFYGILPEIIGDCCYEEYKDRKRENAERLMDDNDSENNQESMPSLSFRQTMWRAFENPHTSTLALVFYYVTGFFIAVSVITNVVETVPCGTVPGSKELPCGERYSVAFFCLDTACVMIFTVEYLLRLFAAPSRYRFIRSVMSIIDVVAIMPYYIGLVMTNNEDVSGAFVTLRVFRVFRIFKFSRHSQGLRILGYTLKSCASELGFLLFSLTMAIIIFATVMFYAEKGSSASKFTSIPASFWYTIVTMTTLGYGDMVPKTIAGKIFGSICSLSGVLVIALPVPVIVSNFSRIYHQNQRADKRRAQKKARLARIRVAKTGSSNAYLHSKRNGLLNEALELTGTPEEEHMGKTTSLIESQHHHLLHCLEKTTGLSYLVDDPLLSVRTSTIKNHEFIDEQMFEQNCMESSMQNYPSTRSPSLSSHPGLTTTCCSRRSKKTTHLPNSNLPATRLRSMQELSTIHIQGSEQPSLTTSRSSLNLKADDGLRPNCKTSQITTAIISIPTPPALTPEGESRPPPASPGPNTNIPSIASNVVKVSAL

With Cn1cc2cc(-c3cc4[nH]nc(C5CC5)c4n(-c4ccc(OC(F)F)cc4)c3=O)ccc2n1 [AZ’9567] the “Free AUC24h” value ([1]; 3 mg/kg BID, day 1, mean ± SD) was 0.69 ± 0.07 µM·h, the “Free Cmax” value ([1]; 3 mg/kg BID, day 1, mean ± SD) was 40 ± 4 nM and the “Free Cmin24h” value ([1]; 3 mg/kg BID, day 1, mean ± SD) was 10 ± 1 nM. For the same molecule, the “Free AUC24h” value ([1]; 3 mg/kg BID, day 7, mean ± SD) was 0.76 ± 0.11 µM·h, the “Free Cmax” value ([1]; 3 mg/kg BID, day 7, mean ± SD) was 50 ± 10 nM and the “Free Cmin24h” value ([1]; 3 mg/kg BID, day 7, mean ± SD) was 10 ± 2 nM. For the same molecule, the “Free AUC24h” value ([1]; 10 mg/kg BID, day 1, mean ± SD) was 2.6 ± 1.1 µM·h, the “Free Cmax” value ([1]; 10 mg/kg BID, day 1, mean ± SD) was 210 ± 60 nM and the “Free Cmin24h” value ([1]; 10 mg/kg BID, day 1, mean ± SD) was 40 ± 20 nM. For the same molecule, the “Free AUC24h” value ([1]; 10 mg/kg BID, day 7, mean ± SD) was 3.9 ± 0.70 µM·h, the “Free Cmax” value ([1]; 10 mg/kg BID, day 7, mean ± SD) was 270 ± 110 nM and the “Free Cmin24h” value ([1]; 10 mg/kg BID, day 7, mean ± SD) was 80 ± 30 nM. For the same molecule, the “Free AUC24h” value ([1]; 30 mg/kg BID, day 1, mean ± SD) was 12 ± 1.1 µM·h, the “Free Cmax” value ([1]; 30 mg/kg BID, day 1, mean ± SD) was 870 ± 190 nM and the “Free Cmin24h” value ([1]; 30 mg/kg BID, day 1, mean ± SD) was 140 ± 40 nM. For the same molecule, the “Free AUC24h” value ([1]; 30 mg/kg BID, day 7, mean ± SD) was 9.9 ± 2.2 µM·h, the “Free Cmax” value ([1]; 30 mg/kg BID, day 7, mean ± SD) was 680 ± 190 nM and the “Free Cmin24h” value ([1]; 30 mg/kg BID, day 7, mean ± SD) was 150 ± 50 nM. For the same molecule, the “depletion of SAM” value (MTAP KO HCT116 xenograft; 20 mg/kg BID, day 24) was greater than 90%, the “depletion of SDMA” value (MTAP KO HCT116 xenograft; 20 mg/kg BID, day 24) was greater than 90% and the anti-tumour response (MTAP KO HCT116 xenograft; 20 mg/kg BID) was “robust anti-tumour response”. The “anti-tumour and PD modulation (SDMA and SAM)” value (MTAP KO HCT116 xenograft; 3, 10, 30 mg/kg BID) was “robust anti-tumour and PD modulation”, the IC50 (Kv4.3) was greater than 40 µM and the IC50 (IKs) was greater than 33.3 µM. For the same molecule, the IC50 (NaV1.5) was greater than 40 µM.
